Data reported in patent US11351172B2, “Pharmaceutical composition and use for applying ribociclib in phosphodiesterase 4-mediated disease treatment of patient and inhibition of phosphodiesterase 4 activity” (Chang Gung University, priority 2019, dated 2022).

Columns and labels:
Human neutrophils = assay: Superoxide anion generation in fMLF-stimulated neutrophils (ferricytochrome c reduction); format: cell-based; conditions: 1 μM, 3 μM and 10 μM; fMLF (0.1 μM)/cytochalasin B (1 μg/ml) stimulated; p<0.001 vs control; n=6; FIG. 2
Protocol: The informed consent to participate which was approved by the Institutional Review Board are signed by the donors. 50 mL of blood was collected from the median cubital vein of each donor by sterile vacutainer, and was used to isolate neutrophils for the following experiments. Human neutrophils (isolated from whole blood of donors) were incubated with DMSO (as solvent, marked as “−” in the groups at X-axis in FIGS. 2A and 2B) or Ribociclib (0.3-10 μM) for 5 minutes, and then stimulated the neutrophils with or without fMLF (0.1 μM)/cytochalasin B (CB, 1 μg/ml) for another 10 minutes to activate the neutrophils. The absorbance (OD550) of the reaction mixture was then measured by a spectrophotometer at OD 550 nm. The reading of OD550 is used to detect the reduction of ferricytochrome c, which indicates the amount of superoxide anion. Cytochalasin B was sold by Sigma-Aldrich, catalog number #2506; fMLF was sold by Sigma-Aldrich, catalog number #454454; model number of the spectrophotometer is HITACHI U-3010.

PDE3B = biological target: T1, PDE3B (Homo sapiens, UniProt Q13370); assay: PDE enzymatic activity, HTRF cAMP dynamic test; format: biochemical; conditions: 0.1 to 30 μM; FIG. 1E
T1 construct: purchased BPS bioscience
Protocol: (§1) Enzymatic activities of PDE subtypes were analyzed according to the user manual of HTRF® package insert cAMP dynamic tests (Cisbio bioassays, catalog number 62AM4PEB). Ribociclib was dissolved in DMSO (as solvent) and then added to PDE assay buffer which contains PDE4A, PDE4B, PDE4C, PDE4D, PDE3B or PDE7A (sold by BPS bioscience). The final concentration of Ribociclib was 0.1 to 30 μM. Then, the mixtures were incubated for 10 minutes at 37° C. PDE assay buffer which was added by DMSO (solvent, marked as “−” in FIGS. 1A-1F) instead of Ribociclib was as a control in this experiment. 60 nM of cAMP was added to each reagent and then incubated for 45 minutes at 37° C. After incubation, cAMP-d2 and anti-cAMP-cryptate were added to each reagent and react at room temperature for 1 hour away from light. Finally, the reagents were quantified by the luminometer (TECAN infinite 200 Pro) to detect enzymatic activities of PDE subtypes.

PDE4A = biological target: T2, PDE4A (Homo sapiens, UniProt P27815); assay: PDE enzymatic activity, HTRF cAMP dynamic test; format: biochemical; conditions: 0.1 μM, 0.3 μM, 1 μM, 3 μM and 10 μM; compared with DMSO control; n=6; FIG. 1A
T2 construct: purchased BPS bioscience
Protocol: as §1

PDE7A = biological target: T3, PDE7A (Homo sapiens, UniProt Q13946); assay: PDE enzymatic activity, HTRF cAMP dynamic test; format: biochemical; conditions: 0.1 to 30 μM; FIG. 1F
T3 construct: purchased BPS bioscience
Protocol: as §1

PDE4B = biological target: T4, PDE4B (Homo sapiens, UniProt Q07343); assay: PDE enzymatic activity, HTRF cAMP dynamic test; format: biochemical; conditions: 3 μM, 10 μM and 30 μM; compared with DMSO control; n=6; FIG. 1B
T4 construct: purchased BPS bioscience
Protocol: as §1

PDE4D = biological target: T5, PDE4D (Homo sapiens, UniProt Q08499); assay: PDE enzymatic activity, HTRF cAMP dynamic test; format: biochemical; conditions: 10 μM and 30 μM; compared with DMSO control; n=6; FIG. 1D
T5 construct: purchased BPS bioscience
Protocol: as §1

PDE4C = biological target: T6, PDE4C (Homo sapiens, UniProt Q08493); assay: PDE enzymatic activity, HTRF cAMP dynamic test; format: biochemical; conditions: 3 μM, 10 μM and 30 μM; compared with DMSO control; n=6; FIG. 1C
T6 construct: purchased BPS bioscience
Protocol: as §1

IMQ-treated mice = assay: Psoriasis-like symptoms in IMQ-treated mice; format: in vivo, BALB/c mice; conditions: applied on back skin once per day for 5 days before IMQ, FIG. 3
Protocol: 250 μg or 500 μg of Ribociclib was dissolved in 50 μl of 0.5% (w/v) methylcellulose 400 solution to make a pharmaceutical composition. The Ribociclib concentration of the pharmaceutical composition was 250 μg/50 μl or 500 μg/50 μl and used in the subsequent animal experimental examples 4 and 5. Male BALB/c mice (7-9 weeks of age, the body weight of each mouse is about 25 g) were divided into different groups, and each group has 6 mice. Each mouse was epilation on the back and then treated with 50 μl of solvent (0.5% methylcellulose 400) or 50 μl of the pharmaceutical composition prepared in example 3 (the concentration of Ribociclib is 10 or 20 mg/kg of body weight) by applying on the nude back skin before topical treatment of imiquimod (IMQ, sold by 3M Health Care Limited). And then applying with or without IMQ on the nude back skin of mice to cause psoriasis-like symptom. Each treatment was given once per day for 5 consecutive days. The mice which applying solvent and IMQ is played as the control. The mice which merely applying solvent is played as the blank.

T2 sequence (P27815 whole entry): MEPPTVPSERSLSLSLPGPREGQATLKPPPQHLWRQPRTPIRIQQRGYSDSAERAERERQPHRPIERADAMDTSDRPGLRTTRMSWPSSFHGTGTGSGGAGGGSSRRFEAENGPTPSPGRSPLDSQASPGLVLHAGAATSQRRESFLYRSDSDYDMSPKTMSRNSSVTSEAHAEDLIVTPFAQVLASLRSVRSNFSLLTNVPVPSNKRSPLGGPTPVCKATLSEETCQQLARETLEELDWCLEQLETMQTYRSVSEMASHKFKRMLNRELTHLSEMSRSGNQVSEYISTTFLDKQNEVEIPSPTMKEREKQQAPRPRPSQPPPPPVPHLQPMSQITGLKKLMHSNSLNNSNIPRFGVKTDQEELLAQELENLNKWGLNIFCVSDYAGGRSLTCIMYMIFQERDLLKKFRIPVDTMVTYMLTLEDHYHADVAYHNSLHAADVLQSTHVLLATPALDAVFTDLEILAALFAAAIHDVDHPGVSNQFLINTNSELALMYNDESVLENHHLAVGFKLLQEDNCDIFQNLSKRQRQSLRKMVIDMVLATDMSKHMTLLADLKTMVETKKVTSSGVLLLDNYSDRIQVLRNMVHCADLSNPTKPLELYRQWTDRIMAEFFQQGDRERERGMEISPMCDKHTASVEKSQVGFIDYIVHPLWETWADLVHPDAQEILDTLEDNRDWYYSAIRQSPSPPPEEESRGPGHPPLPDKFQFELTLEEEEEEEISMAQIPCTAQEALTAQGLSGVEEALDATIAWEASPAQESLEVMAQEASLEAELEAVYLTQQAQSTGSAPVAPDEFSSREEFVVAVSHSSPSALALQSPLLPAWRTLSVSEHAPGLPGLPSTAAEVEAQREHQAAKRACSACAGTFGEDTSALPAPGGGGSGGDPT
T6 sequence (Q08493 whole entry): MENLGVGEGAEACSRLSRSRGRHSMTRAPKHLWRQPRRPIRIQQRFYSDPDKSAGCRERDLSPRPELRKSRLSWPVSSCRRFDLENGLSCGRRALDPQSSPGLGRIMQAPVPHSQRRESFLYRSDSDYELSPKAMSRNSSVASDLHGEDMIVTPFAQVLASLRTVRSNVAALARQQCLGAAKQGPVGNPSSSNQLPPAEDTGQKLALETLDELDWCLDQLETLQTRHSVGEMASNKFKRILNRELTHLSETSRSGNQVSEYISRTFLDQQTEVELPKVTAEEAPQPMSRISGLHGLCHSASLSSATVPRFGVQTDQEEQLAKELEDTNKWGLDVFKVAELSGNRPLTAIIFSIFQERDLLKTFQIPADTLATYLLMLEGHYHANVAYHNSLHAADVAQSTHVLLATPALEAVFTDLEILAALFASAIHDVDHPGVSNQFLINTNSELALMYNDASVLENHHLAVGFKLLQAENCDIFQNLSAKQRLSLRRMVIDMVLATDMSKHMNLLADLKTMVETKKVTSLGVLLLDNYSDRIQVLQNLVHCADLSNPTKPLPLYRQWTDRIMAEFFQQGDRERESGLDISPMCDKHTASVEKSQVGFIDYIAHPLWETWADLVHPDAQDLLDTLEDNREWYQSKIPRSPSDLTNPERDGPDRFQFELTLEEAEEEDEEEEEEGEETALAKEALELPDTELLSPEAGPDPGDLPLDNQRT
T1 sequence (Q13370 whole entry): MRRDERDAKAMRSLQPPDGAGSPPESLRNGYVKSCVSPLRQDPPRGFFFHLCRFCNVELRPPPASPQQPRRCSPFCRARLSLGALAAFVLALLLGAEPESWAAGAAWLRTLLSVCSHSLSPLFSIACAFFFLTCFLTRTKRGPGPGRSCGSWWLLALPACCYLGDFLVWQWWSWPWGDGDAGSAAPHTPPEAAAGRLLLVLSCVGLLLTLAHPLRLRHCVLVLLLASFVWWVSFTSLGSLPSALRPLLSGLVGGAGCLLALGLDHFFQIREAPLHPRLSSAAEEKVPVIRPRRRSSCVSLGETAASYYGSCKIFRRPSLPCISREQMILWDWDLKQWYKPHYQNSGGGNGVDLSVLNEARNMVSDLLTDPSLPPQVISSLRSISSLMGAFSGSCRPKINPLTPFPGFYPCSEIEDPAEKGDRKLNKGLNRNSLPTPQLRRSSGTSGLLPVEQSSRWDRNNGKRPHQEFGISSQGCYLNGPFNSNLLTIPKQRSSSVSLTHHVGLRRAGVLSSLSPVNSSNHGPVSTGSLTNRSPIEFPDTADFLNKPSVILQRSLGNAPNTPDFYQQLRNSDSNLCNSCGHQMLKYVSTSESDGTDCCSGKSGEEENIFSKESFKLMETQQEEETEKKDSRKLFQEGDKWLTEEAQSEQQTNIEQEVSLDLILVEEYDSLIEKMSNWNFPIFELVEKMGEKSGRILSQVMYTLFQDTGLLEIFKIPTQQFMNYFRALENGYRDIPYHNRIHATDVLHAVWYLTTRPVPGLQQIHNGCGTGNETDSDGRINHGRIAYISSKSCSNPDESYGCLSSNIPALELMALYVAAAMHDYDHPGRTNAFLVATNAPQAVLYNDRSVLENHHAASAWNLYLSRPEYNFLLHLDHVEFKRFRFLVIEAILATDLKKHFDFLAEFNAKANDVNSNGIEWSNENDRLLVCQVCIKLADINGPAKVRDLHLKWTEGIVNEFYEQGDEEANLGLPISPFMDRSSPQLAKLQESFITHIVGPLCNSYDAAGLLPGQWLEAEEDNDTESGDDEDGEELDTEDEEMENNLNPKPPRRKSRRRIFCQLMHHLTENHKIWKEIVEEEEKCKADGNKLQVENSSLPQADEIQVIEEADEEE
T4 sequence (Q07343 whole entry): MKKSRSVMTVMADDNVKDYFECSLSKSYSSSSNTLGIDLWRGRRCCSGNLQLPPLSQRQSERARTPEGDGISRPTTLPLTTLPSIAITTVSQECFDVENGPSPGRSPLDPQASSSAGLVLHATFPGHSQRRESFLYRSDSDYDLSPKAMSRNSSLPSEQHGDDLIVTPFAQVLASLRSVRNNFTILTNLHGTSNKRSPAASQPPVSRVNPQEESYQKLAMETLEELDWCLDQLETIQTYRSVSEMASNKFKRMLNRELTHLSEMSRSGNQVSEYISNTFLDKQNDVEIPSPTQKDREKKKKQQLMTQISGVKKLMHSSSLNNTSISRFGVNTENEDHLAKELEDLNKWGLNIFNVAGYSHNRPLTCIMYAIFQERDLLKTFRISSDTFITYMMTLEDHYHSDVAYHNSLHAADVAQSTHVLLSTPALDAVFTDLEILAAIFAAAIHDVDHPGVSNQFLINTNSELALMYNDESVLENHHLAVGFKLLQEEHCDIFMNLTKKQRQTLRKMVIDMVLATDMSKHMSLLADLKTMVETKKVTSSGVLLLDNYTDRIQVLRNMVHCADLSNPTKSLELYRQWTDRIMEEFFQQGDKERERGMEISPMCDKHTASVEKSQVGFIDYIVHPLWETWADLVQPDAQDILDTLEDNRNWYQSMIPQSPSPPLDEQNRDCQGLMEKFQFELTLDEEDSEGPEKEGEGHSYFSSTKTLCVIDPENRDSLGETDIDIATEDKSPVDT
T5 sequence (Q08499 whole entry): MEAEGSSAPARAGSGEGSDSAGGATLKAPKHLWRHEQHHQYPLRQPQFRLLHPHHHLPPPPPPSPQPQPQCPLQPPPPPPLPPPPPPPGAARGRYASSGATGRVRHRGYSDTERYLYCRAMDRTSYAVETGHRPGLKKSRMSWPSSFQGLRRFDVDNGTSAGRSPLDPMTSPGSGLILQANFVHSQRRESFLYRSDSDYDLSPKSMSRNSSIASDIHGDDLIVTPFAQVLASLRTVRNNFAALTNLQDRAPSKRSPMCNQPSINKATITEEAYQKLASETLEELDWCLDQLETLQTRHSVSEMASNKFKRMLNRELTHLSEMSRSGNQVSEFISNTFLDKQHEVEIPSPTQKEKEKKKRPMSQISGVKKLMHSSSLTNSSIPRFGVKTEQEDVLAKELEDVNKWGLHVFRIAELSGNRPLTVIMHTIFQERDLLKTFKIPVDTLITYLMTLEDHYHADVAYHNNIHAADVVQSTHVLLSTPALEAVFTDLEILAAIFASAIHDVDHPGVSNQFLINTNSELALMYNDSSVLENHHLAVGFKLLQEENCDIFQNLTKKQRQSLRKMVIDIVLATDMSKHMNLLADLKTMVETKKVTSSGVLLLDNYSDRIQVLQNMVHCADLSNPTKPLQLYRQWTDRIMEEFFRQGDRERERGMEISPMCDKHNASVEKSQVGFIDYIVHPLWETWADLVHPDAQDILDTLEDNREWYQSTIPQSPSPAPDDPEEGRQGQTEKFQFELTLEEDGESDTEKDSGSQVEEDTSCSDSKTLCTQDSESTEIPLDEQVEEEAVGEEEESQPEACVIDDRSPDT
T3 sequence (Q13946 whole entry): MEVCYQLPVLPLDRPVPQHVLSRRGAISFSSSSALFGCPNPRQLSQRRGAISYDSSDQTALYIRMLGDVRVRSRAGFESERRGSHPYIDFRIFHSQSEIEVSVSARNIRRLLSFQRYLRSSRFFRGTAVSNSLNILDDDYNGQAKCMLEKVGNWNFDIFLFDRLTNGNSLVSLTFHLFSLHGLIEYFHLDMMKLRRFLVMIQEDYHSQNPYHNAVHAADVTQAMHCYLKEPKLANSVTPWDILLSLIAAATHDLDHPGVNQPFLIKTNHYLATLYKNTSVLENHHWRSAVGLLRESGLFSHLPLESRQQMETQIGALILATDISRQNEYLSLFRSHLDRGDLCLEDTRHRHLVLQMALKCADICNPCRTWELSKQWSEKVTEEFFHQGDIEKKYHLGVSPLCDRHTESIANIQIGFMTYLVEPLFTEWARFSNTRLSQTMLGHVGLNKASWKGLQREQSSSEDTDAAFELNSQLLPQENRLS

PDE3B activity (PDE3B): would not inhibit
PDE4A activity (PDE4A): significantly inhibit PDE4A activity
PDE7A activity (PDE7A): would not inhibit
PDE4B activity (PDE4B): significantly inhibit PDE4B activity
PDE4D activity (PDE4D): significantly inhibit PDE4D activity
PDE4C activity (PDE4C): significantly inhibit PDE4C activity
Structure (SMILES): CN(C)C(=O)c1cc2cnc(Nc3ccc(N4CCNCC4)cn3)nc2n1C1CCCC1 [Ribociclib, 7-Cyclopentyl-N,N-dimethyl-2-{[5-(1-piperazinyl)-2-pyridinyl]amino}-7H-pyrrolo[2,3-d]pyrimidine-6-carboxamide]
generation of superoxide anion (Human neutrophils): significantly restrict the generation of superoxide anion
psoriasis-like symptoms (IMQ-treated mice; 10 mg/kg of the body weight): can improve or cure the psoriasis-like symptoms
psoriasis-like symptoms (IMQ-treated mice; 20 mg/kg of the body weight): can improve or cure the psoriasis-like symptoms
